Values after ≈ are worked out from the molar mass of the structure shown. Active and inactive are the calls of the source. The rule behind the calls is not given here.
Assays:
[1] = test system: Escherichia coli; test: Antibacterial activity against Escherichia coli ATCC 25922 incubated for 16 to 18 hrs by absorbance based analysis; type: functional; conditions: time 16-18 hrs
[2] = test system: Staphylococcus aureus; test: Antibacterial activity against fluoroquinolone-sensitive methicillin resistant Staphylococcus aureus USA500 incubated for 16 to 18 hrs by absorbance based analysis; type: functional; conditions: time 16-18 hrs
[3] = test system: Staphylococcus aureus; test: Antibacterial activity against fluoroquinolone-sensitive methicillin resistant Staphylococcus aureus ATCC 33591 incubated for 16 to 18 hrs by absorbance based analysis; type: functional; conditions: time 16-18 hrs
[4] = test system: Staphylococcus aureus; test: Antibacterial activity against fluoroquinolone/methicillin resistant Staphylococcus aureus Mu50 incubated for 16 to 18 hrs by absorbance based analysis; type: functional; conditions: time 16-18 hrs
[5] = Metabolic stability in rat liver microsomes assessed as elimination half life at 1 uM by LC-MS/MS analysis; type: ADME, Microsome; conditions: read-out: beta t1/2
[6] = Metabolic stability in human liver microsomes assessed as elimination half life at 1 uM by LC-MS/MS analysis; type: ADME, Microsome; conditions: read-out: beta t1/2
[7] = test system: Staphylococcus aureus; test: Antibacterial activity against methicillin resistant Staphylococcus aureus ATCC 33591 measured after 15 passages; type: functional
[8] = Metabolic stability in human liver microsomes assessed as liver intrinsic clearance at 1 uM by LC-MS/MS analysis; type: ADME, Microsome; conditions: read-out: CLH
[9] = Metabolic stability in human liver microsomes assessed as compound remaining at 1 uM measured after 60 mins by LC-MS/MS analysis; type: ADME, Microsome; conditions: read-out: Stability
[10] = test system: A549; test: Cytotoxicity against human A549 cells assessed as reduction in cell viability at 100 uM incubated for 24 hrs by CCK-8 assay; type: toxicity, cell-based; conditions: a549, 24 h
[11] = Metabolic stability in rat liver microsomes assessed as liver intrinsic clearance at 1 uM by LC-MS/MS analysis; type: ADME, Microsome; conditions: read-out: CLH
[12] = Metabolic stability in rat liver microsomes assessed as microsomal intrinsic clearance at 1 uM by LC-MS/MS analysis; type: ADME, Microsome; conditions: read-out: CLH
[13] = test system: HEK293; test: Cytotoxicity against HEK293 cells assessed as reduction in cell viability at 100 uM incubated for 24 hrs by CCK-8 assay; type: toxicity, cell-based; conditions: human, hek293, 24 h
[14] = Metabolic stability in human liver microsomes assessed as microsomal intrinsic clearance at 1 uM by LC-MS/MS analysis; type: ADME, Microsome; conditions: read-out: CLH
[15] = Metabolic stability in rat liver microsomes assessed as drug elimination rate constant at 1 uM by LC-MS/MS analysis; type: ADME, Microsome
[16] = Metabolic stability in rat liver microsomes assessed as compound remaining at 1 uM measured after 60 mins by LC-MS/MS analysis; type: ADME, Microsome; conditions: read-out: Stability
[17] = Metabolic stability in human liver microsomes assessed as drug elimination rate constant at 1 uM by LC-MS/MS analysis; type: ADME, Microsome

| SMILES | MIC [1] | MIC [2] | MIC [3] | MIC [4] | other results |
| --- | --- | --- | --- | --- | --- |
| O=C(O)c1cn(C2CC2)c2cc(Nc3nccc(Cc4cccc(Cl)c4)n3)ccc2c1=O | > 64 µg/mL | 1.56 µg/mL (≈ 3.49 µM) | 0.5 µg/mL (≈ 1.12 µM) | 1.56 µg/mL (≈ 3.49 µM) | – |
| Cc1cccc(Cc2ccnc(Nc3cc4c(cc3F)c(=O)c(C(=O)O)cn4C3CC3)n2)c1 | > 64 µg/mL | – | 4 µg/mL (≈ 9 µM) | – | – |
| O=C(O)c1cn(C2CC2)c2cc(Nc3nccc(Cc4ccc(Cl)cc4Cl)n3)c(F)cc2c1=O | > 64 µg/mL | 3.12 µg/mL (≈ 6.25 µM) | 0.5 µg/mL (≈ 1 µM) | 3.12 µg/mL (≈ 6.25 µM) | – |
| O=C(O)c1cn(C2CC2)c2cc(Nc3nccc(Cc4cccc(Cl)c4)n3)c(F)cc2c1=O | > 64 µg/mL | 6.25 µg/mL (≈ 13.4 µM) | 2 µg/mL (≈ 4.3 µM) | 6.25 µg/mL (≈ 13.4 µM) | – |
| COc1ccc(Cc2ccnc(Nc3cc4c(cc3F)c(=O)c(C(=O)O)cn4C3CC3)n2)cc1 | > 64 µg/mL | – | 4 µg/mL (≈ 8.69 µM) | – | – |
| O=C(O)c1cn(C2CC2)c2cc(Nc3nccc(Cc4ccc(F)c(F)c4)n3)ccc2c1=O | > 64 µg/mL | 0.78 µg/mL (≈ 1.74 µM) | 0.5 µg/mL (≈ 1.12 µM) | 1.56 µg/mL (≈ 3.48 µM) | – |
| O=C(O)c1cn(C2CC2)c2cc(N3CCNCC3)c(F)cc2c1=O [CIPROFLOXACIN] | – | 0.39 µg/mL (≈ 1.18 µM) | 0.25 µg/mL (≈ 0.754 µM) | – | – |
| Cc1ccc(Cc2ccnc(Nc3cc4c(cc3F)c(=O)c(C(=O)O)cn4C3CC3)n2)cc1C | > 64 µg/mL | 25 µg/mL (≈ 54.5 µM) | 2 µg/mL (≈ 4.36 µM) | 25 µg/mL (≈ 54.5 µM) | – |
| O=C(O)c1cn(C2CC2)c2cc(Nc3nccc(Cc4ccccc4Cl)n3)c(F)cc2c1=O | > 64 µg/mL | 6.25 µg/mL (≈ 13.4 µM) | 2 µg/mL (≈ 4.3 µM) | 6.25 µg/mL (≈ 13.4 µM) | – |
| O=C(O)c1cn(C2CC2)c2cc(Nc3nccc(Cc4ccc(Cl)cc4)n3)c(F)cc2c1=O | > 64 µg/mL | 1.56 µg/mL (≈ 3.36 µM) | 1 µg/mL (≈ 2.15 µM) | 3.12 µg/mL (≈ 6.71 µM) | – |
| Cc1ccc(Oc2ccnc(Nc3ccc4c(=O)c(C(=O)O)cn(C5CC5)c4c3)n2)cc1C | > 64 µg/mL | 0.39 µg/mL (≈ 0.881 µM) | 0.5 µg/mL (≈ 1.13 µM) | 0.39 µg/mL (≈ 0.881 µM) | half-life at 1 µM [5]: 8.7 min; half-life at 1 µM [6]: 25.9 min |
| O=C(O)c1cn(C2CC2)c2cc(Nc3nccc(Cc4ccc(Cl)c(Cl)c4)n3)ccc2c1=O | > 64 µg/mL | 1.56 µg/mL (≈ 3.24 µM) | 0.5 µg/mL (≈ 1.04 µM) | 1.56 µg/mL (≈ 3.24 µM) | – |
| O=C(O)c1cn(C2CC2)c2cc(Nc3nccc(Cc4ccccc4)n3)c(F)cc2c1=O | > 64 µg/mL | – | 4 µg/mL (≈ 9.29 µM) | – | – |
| N#Cc1ccccc1Cc1ccnc(Nc2cc3c(cc2F)c(=O)c(C(=O)O)cn3C2CC2)n1 | > 64 µg/mL | – | 8 µg/mL (≈ 17.6 µM) | – | – |
| CN[C@H](CC(C)C)C(=O)N[C@H]1C(=O)N[C@@H](CC(N)=O)C(=O)N[C@H]2C(=O)N[C@H]3C(=O)N[C@H](C(=O)N[C@H](C(=O)O)c4cc(O)cc(O)c4-c4cc3ccc4O)[C@H](O)c3ccc(c(Cl)c3)Oc3cc2cc(c3O[C@@H]2O[C@H](CO)[C@@H](O)[C@H](O)[C@H]2O[C@H]2C[C@](C)(N)[C@H](O)[C@H](C)O2)Oc2ccc(cc2Cl)[C@H]1O [VANCOMYCIN] | > 64 µg/mL | 0.78 µg/mL (≈ 0.538 µM) | – | 3.12 µg/mL (≈ 2.15 µM) | Activity [7]: inactive |
| Cc1ccc(Cc2ccnc(Nc3ccc4c(=O)c(C(=O)O)cn(C5CC5)c4c3)n2)cc1C | > 64 µg/mL | 0.78 µg/mL (≈ 1.77 µM) | 0.5 µg/mL (≈ 1.14 µM) | 0.78 µg/mL (≈ 1.77 µM) | CLint scaled at 1 µM [8]: 26.6 mL/min/kg; remaining at 1 h, 1 µM [9]: 41.1%; half-life at 1 µM [5]: 59.2 min; Activity [10]: Toxic; CLint scaled at 1 µM [11]: 42.2 mL/min/kg; microsomal CLint at 1 µM [12]: 23.4 µL/min/mg; Activity [13]: Toxic; microsomal CLint at 1 µM [14]: 28.2 µL/min/mg; k el at 1 µM [15]: 0.0002 s⁻¹; remaining at 1 h, 1 µM [16]: 49.6%; half-life at 1 µM [6]: 49.4 min; k el at 1 µM [17]: 0.000233 s⁻¹ |

Source: ChEMBL document CHEMBL5500358, “Identification of CH2-linked quinolone-aminopyrimidine hybrids as potent anti-MRSA agents: Low resistance potential and lack of cross-resistance with fluoroquinolone antibiotics” (Eur J Med Chem, 2024)
